“And” between values parts separate entries of the source, which are not always exact repeats. Identical values can stand only once.

Results on three compounds are retold here after US9163032B2, “Esters of DCPLA and methods of treatment using the same” (Blanchette Rockefeller Neurosciences Institute, priority 2011, dated 2015).

The test system of series [1] is Phosphatidylserine (C2) Binding Site. The series can be described thus: 3H-DCPLA-ME binding to rat brain slices with C1 and C2 competitors (film-autoradiography). Conditions: rat brain slices. The protocol:
To determine the binding site of DCPLA-ME, ^3H-DCPLA-ME was incubated with rat brain slices in the absence and presence of known C1 and C2 competitors. More specifically, rat brain sections were fixed with formaldehyde, sliced, and incubated with (1)^3H-DCPLA-ME alone; (2)^3H-DCPLA-ME with DCPLA; (3)^3H-DCPLA-ME with Phorbol ester; or (4)^3H-DCPLA-ME and Bryostatin 1. After incubation, the slices were washed with a buffer made of 130 mM NaCl, 5 mM MgCl, 5 mM KCl, 1 mM EGTA, and 0.1% bovine serum albumin in 10 mM HEPES-NaOH, pH 7.4, dried, and analyzed with film-autoradiography.

Series [2] concerns cultured primary rat hippocampal neurons. The series can be described thus: Neuroprotection against ASPD induced toxicity, MTT assay, primary neurons. The class given is cell-based. Conditions: 50 nM ASPD, 20 hr, activator 0.27 nM. As for the experimental part:
(§1) Viability of cells was measured by MTT assay. MTT (i.e., 3-(4,5-dimethylthiazol-2-yl)-2,5-diphenyltetrazolium bromide) is a tetrazolium salt that is cleaved to formazan by the succinate dehydrogenase, which is only active in viable cells. After solubilization of the formazan, the amount of dye can be quantified with a microplate reader at 570 nm along with a reference of 630 nm. For the MTT assay, 5×10^4 primary rat hippocampal neurons from 18-day-old embryonic Sprague-Dawley rat brains or SH-SY5Y cells were plated on each well of 24-well plates coated with poly-D-lysine. After treatment, the cells were washed with 1× PBS and were incubated with 200 μl of 1 mg/ml MTT solution (Sigma, USA) at 37° C. for 2 hr. Then the MTT-solution was removed and the cells were lysed with 200 μl isopropanol containing 0.04 M HCl and […] for 10 min. Finally, the reading was taken at 570 nm and 630 nm. All the samples were done in triplicate and the data were represented as the percentage of control.
Bryostatin 1, DCPLA, and DCPLA-ME were tested against ASPD-induced cytotoxicity to determine their neuroprotective efficacy.

Series [3] concerns primary human cortical neurons. The series is described as follows: 40 day culture of human primary cortical neurons: survival, synapses, branching. The class given is cell-based. As to conditions: 0.27 nM. As for the experimental part:
To examine the effects of PKC-ε activation, cultured human cortical neurons in serum-free artificial medium were exposed to 100 nM DCPLA-ME added every three days, along with 50% medium replacement, for 40 days. More specifically, human primary cortical neurons were grown in Neuronal Medium (ScienCell Cat No#1521) containing neuronal growth supplement (NGS) (Sciencell Cat No#1562).
Cells were plated on poly-l-lysine (0.001%) coated plates at a density of >10000 cells/cm2. Half of the media was replaced by new media every 3 days. DCPLA-ME was dissolved in 100% ethanol and added at 100 nM final concentration. Fresh DCPLA-ME (100 nM) was added every 3 days during media change. The experiments were continued for 40 days.
Human primary neurons (ScienCell Research Laboratories, USA) were thawed and plated on poly-L-lysine coated plates at a density of 10,000 cells per cm^2 and were maintained in neuronal medium (DMEM+high glucose+neuronal growth supplement, ScienCell Research Laboratories, USA) following the recommended method. Primary human neurons were then treated with either DCPLA-ME (100 nM) or bryostatin 1 (0.27 nM) for 40 days. Fresh drug was added every third day with 50% media change.

For series [4], the system named is rat primary hippocampal neurons. The series can be described thus: Neurotoxic effect of Aβ1-42 oligomers, MTT viability assay. The class given is cell-based. As to conditions: 20 hr. The protocol: Amylospheroids (ASPDs) and Aβ monomers were prepared following Hoshi, M., et al. (2003) Proc Natl Acad Sci USA 100, 6370-6375, and Noguchi, A., et al. (2009) J Biol Chem 284, 32895-32905. Briefly, Aβ1-42 was dissolved in 1,1,1,3,3,3-hexafluoro-2-propanol and incubated overnight at 4° C. and then 3 hr at 37° C. The dissolved Aβ1-42 was then lyophilized in 1.5 ml polypropylene centrifuge tubes at 40 nmol/tube concentration. For preparing the ASPDs, the lyophilized Aβ was dissolved in phosphate buffered saline (PBS) without Ca^2+ or Mg^2+ at less than 50 μM concentration and rotated for 14 hr at 4° C. After incubation, the Aβ solution was purified using a 100 kDa molecular mass cutoff filter (Amicon Ultra, Millipore) and the high-molecular weight fraction was saved to obtain the most toxic ASPDs. Aβ derived diffusible ligands (ADDLs) were produced as previously described. See Lambert, M. P et al., Proc. Natl. Acad. Sci. USA, 1998, 95: 6448-6453. Briefly, Aβ1-42 was solubilized at 5 mM in dimethyl sulfoxide, diluted to 100 μM in F12k medium and was incubated at 4° C. for 24 hr. The solution was centrifuged at 14000×g for 10 min at 4° C. and the supernatant was used as the ADDLs.
as §1
To assess the neurotoxic effect of different sized oligomers, rat primary hippocampal neurons were treated with variable concentrations of these Aβ1-42 species for 20 hr. Viability of the treated cells was compared to untreated cells using the MTT assay described above.
In general terms: Formazan colour is commonly taken as a measure of viable cells.

A further series has as its system PKC-ε. The series is described as follows: PKC-ε translocation to membrane in SH-SY5Y neuroblastoma cells (Western Blot). The class given is cell-based, human. Conditions: 1 μM (20-fold higher than ASPD), relative to control. As for the experimental part:
(§2) Cells were harvested in homogenizing buffer containing 10 mM Tris-Cl (pH 7.4), 1 mM PMSF (phenylmethylsulfonyl fluoride), 1 mM EGTA, 1 mM EDTA, 50 mM NaF, and 20 μM leupeptin, and were lysed by sonication. The homogenate was centrifuged at 100,000×g for 15 min at 4° C. to obtain the cytosolic fraction (supernatant) and membrane (pellet). The pellet was resuspended in the homogenizing buffer by sonication. For whole cell protein isolation from primary neurons, the homogenizing buffer contained 1% Triton X-100. Protein concentration was measured using the Coomassie Plus (Bradford) Protein Assay kit (Pierce, USA). Following quantification, 20 μg of protein from each sample was subjected to SDS-PAGE analysis in a 4-20% gradient Tris-Glycine gel (Invitrogen, USA). The separated protein was then transferred to a nitrocellulose membrane. The membrane was blocked with 5% BSA at room temperature for 15 min and was incubated with primary antibody overnight at 4° C. After the incubation, it was washed three times with TBS-T (Tris Buffered Saline-Tween 20) and further incubated with alkaline phosphatase conjugated secondary antibody (Jackson Immunoresearch Laboratories, USA) at 1:10000 dilution for 45 min. The membrane was finally washed three times with TBS-T and developed using the 1-step NBT-BCIP substrate (Pierce, USA). The blot was imaged in an ImageQuant RT-ECL (GE Life Sciences, Piscataway, N.J.) and densitometric quantification was performed using IMAL software (Blanchette Rockefeller Neurosciences Institute, Morgantown, W. Va.). For translocation assays, PKC activation was represented as the percentage of total protein in the membrane (membrane/cytosol+membrane).

The test system of a further series is synaptophysin. The series can be described thus: Synaptophysin expression in primary hippocampal neurons (immunofluorescence, Western Blot). As to conditions: 1 μM, 20 hr. The class given is cell-based, rat. As for the experimental part:
(§3) Cells were grown in two chambered slides (Nunc, USA) at low density. For immunofluorescence staining, the cells were washed with PBS (pH 7.4) and fixed with 4% paraformaldehyde for 4 min. Following fixation, the cells were blocked and permeabilized with 5% serum and 0.3% Triton X-100 in 1×PBS for 30 min. Cells were washed three times with 1×PBS and incubated with primary antibodies for 1 hr at 1:100 dilution. After the incubation, the slides were again washed three times in 1×PBS and were incubated with the FITC anti-mouse IgG and Rhodamine anti-rabbit IgG for 1 hr at 1:400 dilution. The cells were further washed and stained with DAPI (4′,6-diamidino-2′-phenylindole, dihydrochloride) (Thermo Scientific, USA) to stain the nucleus. Finally, the slides were washed and mounted in Pro Long Gold antifade mounting solution (Invitrogen, USA) and were viewed under a LSM 710 Meta confocal microscope (Zeiss) at 350 nm, 490 nm, and 540 nm excitation and 470 nm, 525 nm, and 625 nm emission for DAPI, FITC, and Rhodamine respectively. Six individual fields at 63× oil lens magnification were analyzed for the mean fluorescence intensity (MFI) in each channel.
as §2
(§4) To estimate the synaptic damage caused by the ASPDs on primary hippocampal neurons, the expression of synaptophysin (a presynaptic marker) and PSD-95 (a postsynaptic marker) was measured by immunofluorescence staining. […] Following a 20 hr incubation period, the cells were stained for nucleus, PSD-95, and synaptophysin. Expression levels were calculated as the change of percentage in mean fluorescence intensity compared to untreated cells.
(§5) Primary neurons, treated and untreated, were immunostained for MAP-2, synaptophysin, and PSD-95 to determine the synaptic integrity. […] Following a 20 hr incubation period, the cells were stained for MAP-2, PSD-95, and synaptophysin as described above.

A further series relates to PSD-95. The series can be described thus: PSD-95 expression in primary hippocampal neurons (immunofluorescence). The class given is cell-based, rat. Conditions: 1 μM, 20 hr. As for the experimental part: as §3, §4, §5

As for `CCC/C=C/C=C/C(=O)O[C@H]1/C(=C/C(=O)OC)C[C@H]2C[C@H]([C@@H](C)O)OC(=O)C[C@H](O)C[C@@H]3C[C@H](OC(C)=O)C(C)(C)[C@](O)(C[C@@H]4C/C(=C/C(=O)OC)C[C@H](/C=C/C(C)(C)[C@]1(O)O2)O4)O3` [Bryostatin 1], the “3H-DCPLA-ME binding, 30 nM competitor” value in series [1] (30 nM competitor) stood at 100%. The “3H-DCPLA-ME binding, 1 μM competitor” value in series [1] (1 μM competitor) stood at 77%. In series [2], the “viability of ASPD-treated primary neurons” value turned out to be 73.23±3.6%. Moreover, in series [3] (30 day old neurons), the “co-localized staining of PSD-95 and synaptophysin in puncta” value was “increased co-localized staining”. Moreover, in series [3] (40 days), the “Immunostaining of PSD-95 and synaptophysin from Western blots” value is listed as “significantly higher”.

In the case of “ADDL: Aβ derived diffusible ligands prepared from Aβ1-42, containing 6.5 monomers on average”, the “Viability of primary neuron” value in series [4] (50 nM) is 91.15 ± 1.44 % of control; in series [4] (500 nM), 79.01 ± 11.32 % of control; in series [4] (1000 nM (1 μM)), 50.98±3.8 % of control and 49.02 ± 7.26 % of control. In the series on PKC-ε, this compound yielded a PKC-ε membrane translocation of 80.82±4.025%. In addition, the “synaptophysin mean fluorescence intensity” value in the series with synaptophysin was 75.64±4.84 % of control.

Aβ Monomer: monomeric Aβ1-42: in the series with PKC-ε, the PKC-ε membrane translocation result is “did not affect translocation”. In addition, the “synaptophysin mean fluorescence intensity” value in the series on synaptophysin was “did not change”. Further, the PSD-95 expression result in the series on PSD-95 is recorded as “did not change”.
